Results published in patent US6417160B1, “Methods for increasing schwann cell survival” (priority 1997, dated 2002).

Experiments:
[1] = test system: PD2 (non-proliferating) and PD15 (proliferating) Schwann cells; test: Schwann cell survival in high glucose media (counts of intact nuclei); type: cell-based, rat; details: IGF-1 1 ng/ml, NAC 10^−7 M, DMD 10^−9 M; for Schwann cell survival: 24 hr of high glucose exposure (40 mM); for number of cells (intact nuclei relative to 5.5 mM glucose control): 40 mM glucose, 2 hr
[2] = test system: PD2 Schwann cells; test: Mitochondrial membrane potential (ΔΨM) by CMTMR confocal imaging; type: cell-based, rat; details: 40 mM glucose, DMD 10^−9 M; for distribution frequencies of ΔΨM (CMTMR intensity): 6 h, CsA 10^−7, ATR 1 mM; for CMTMR fluorescent intensity (confocal images): 6 hr, CsA 10^−7 M, ATR 1 mM
From the text: As has been previously reported in a number of models of apoptosis, apoptotic cell death is often preceded by a fall in mitochondrial membrane potential (ΔΨM). […] This dye is preferentially taken up by actively respiring mitochondria where it binds to protein thiol groups within the mitochondrial matrix and is retained following aldehyde fixation. The CMTMR fluorescence intensity therefore represents the highest level of negativity difference (i.e., the greatest ΔΨM) in the mitochondria during the period of dye exposure prior to fixation.
A Leica true confocal scanning (TCS) microscope was used to image the cells. A pinhole aperture of 20 is maintained with constant laser and photo-detector power settings and an excitation filter wavelength of 488 nm and a band-pass emission filter of 600/30 nm. Each image was scanned using an oil-immersion, 100×, 1.4 N.A. objective at 512 by 512 by 8 bits per pixel resolution, background offset of −1 and line averaged 32 times. The confocal images were saved as grey-scale tagged image file format (TIFF) files for analysis and recolourization. The Metamorph™ (Universal Imaging, Ltd.) image capture and analysis system for Windows was used to measure the intensity of CMTMR fluorescence in individual mitochondria. In each mitochondrion, no fewer than two regions were defined by a box measuring 9 pixels square each. The average intensity per pixel within each defined region is measured and automatically logged to a Microsoft Excel spreadsheet for analysis.
At the end of the indicated time point, Schwann cells so treated were incubated with CMTMR to estimate ΔΨM, fixed with 4% paraformaldehyde, and processed for the immunocytochemical co-localization of hexokinase (Type 1) to mitochondria. The fixed coverslips were blocked for 1 hr with 10% normal donkey serum to minimize non-specific binding, and incubated with a mouse monoclonal antibody raised against hexokinase (Type 1; Chemicon) at a dilution of 1:500 overnight at 4° C. Coverslips were washed in PBS and incubated with a Cy5 conjugated donkey anti-mouse (Jackson Immuno Research) at a dilution of 1:250 for 1 hr at room temperature. Coverslips were then washed with PBS and mounted with Aquamount (BDH).

[3] = test system: Schwann cells; test: NO production by Griess reaction (secreted nitrite in culture medium); type: cell-based, rat; details: for NO2 production: Schwann cells exposed to 40 mM glucose, 24 hr, DMD 10^−9 M, L-NIL 10^−4 M
Procedure: To determine the role of NO signaling in high glucose induced Schwann cell apoptosis, PD2 and PD15 Schwann cells were cultured, as described, in the presence of 5.5 or 40 mM glucose for 24 hr. Cells exposed to 40 mM glucose were also treated with DMD (10^−9 M), the NOS inhibitor L-NIL (10^−4 M) or an inhibitor of the constitutive, Ca^++-dependent isoform of NOS (cNOS), S-methyl-thiocitruline (SMTC, 10^−4 M). […] PD2 Schwann cells were also treated with increasing amounts of TNF-α […] plus IFN-γ (50, 100, 250, and 500U) for 24 hr to establish a dose-response threshold for the assay.
The Griess reaction, which measures secreted nitrite (NO2) in the culture medium, was used to investigate NO production by Schwann cells.

[4] = Cell rescue with P450 inhibitor Proadifen (animal and cell-culture studies); details: P450 inhibitor Proadifen co-administered
[5] = test system: neuronal and non-neuronal cells; details: several systems; cited from earlier work
[6] = Stability of deprenyl versus pH of the medium; details: pH about 3-5 versus pH about 7
[7] = test system: cultured cerebellar granule cells; details: cited from earlier work
[8] = test system: PC12 cells; details: cited from earlier work
[9] = Hepatic metabolism after oral administration

| Compound | Schwann cell survival [1] | number of cells (intact nuclei relative to 5.5 mM glucose control) ([1]; non-proliferating cells) | number of cells (intact nuclei relative to 5.5 mM glucose control) ([1]; proliferating cells) | CMTMR fluorescent intensity (confocal images) [2] | also measured |
| --- | --- | --- | --- | --- | --- |
| C#CCNC(C)Cc1ccccc1 (single isomer, unassigned; (-)) [DMD, (−)-desmethyldeprenyl] | significantly improve Schwann cell survival | significant increase | significant increase | comparable levels of CMTMR fluorescent intensity compared with cells in base media | distribution frequencies of ΔΨM (CMTMR intensity) [2]: restored ΔΨM distributions comparable with the base media; NO2 production [3]: slight decrease; cell-rescuing activity on administration of Proadifen [4]: does not block the cell-rescuing activity |
| C#CCN(C)[C@H](C)Cc1ccccc1 [(−)-deprenyl, R-(−)-N,α-Dimethyl-N-2-propynyl phenethylamine] |  |  |  |  | apoptotic death of neuronal and non-neuronal cells [5]: reduce the apoptotic death; stability [6]: more stable at a pH in the range of about 3-5 than at a pH of about 7; AraC induced drop in ΔΨM [7]: prevent; trophic withdrawal induced drop in ΔΨM [8]: prevent; cell-rescuing activity on administration of Proadifen [4]: reduces the ability of (−)-deprenyl to prevent cell death; metabolites formed by the liver [9]: (−)-desmethyldeprenyl, as well as (−)-methamphetamine and (−)-amphetamine |
| C=C1[C@@H]2CC[C@H]3[C@]4(C)C[C@H](O[C@@H]5O[C@H](CO)[C@@H](OS(=O)(=O)O)[C@H](OS(=O)(=O)O)[C@H]5OC(=O)CC(C)C)C[C@@H](C(=O)O)[C@H]4CC[C@]3(C2)[C@H]1O [ATR, atractyloside] |  |  |  | decreased CMTMR brightness | distribution frequencies of ΔΨM (CMTMR intensity) [2]: pronounced shift to the left |
| CC(=N)NCCCC[C@H](N)C(=O)O [L-NIL] |  |  |  |  | stimulation of NO2 release by TNF-α/IFN-γ ([3]; L-NIL added): prevented; NO2 production [3]: slight decrease |
| CC(=O)N[C@@H](CS)C(=O)O [NAC, N-acetyl-L-cysteine] | significantly improve Schwann cell survival | significant increase | significant increase |  |  |
| IGF-1: insulin-dependant growth factor (IGF); anti-apoptotic agent added to high glucose media | significantly improve Schwann cell survival | significant increase | significant increase |  |  |
| cyclosporin A [CsA] |  |  |  | enhanced brightness |  |
